# Test results from US20050153306A1, “Fluorogenic enzyme substrates and uses thereof” (IRM LLC, priority 2003, published 2005).
# Tests used:
# Thrombin = molecular target: T1, Thrombin (Homo sapiens, UniProt P00734); assay: Enzymatic activity monitored using rhodamine protease substrates (fluorescence); assay type: biochemical; settings: substrate 250 μM, thrombin 500 pM, 37° C.
# T1 construct: purchased Haematologic Technologies (Essex Jct., Vt.)
# Method: (§1) The substrates 1 and 3 were used at 250 μM. Thrombin was used at a concentration of 500 pM and caspase-3 was used at a concentration of 10 nM. For thrombin a buffer consisting of 50 mM Tris (pH 7.4),200 mM NaCl, 5 mM CaCI2 and 0.01% (v/v) Tween-20 (THB) was used. The buffer for caspase-3 (CAB) consisted of 20 mM HEPES (pH 7.4), 100 mM NaCi, inM EDTA, 0.1% CHAPS,10% (w/v) sucrose and 10 mM DTT. 50 µl of the buffer containing the substrate at a concentration of 500 JIM were transferred into a well of a black 96-well Microfluor plate (Dynex Technologies, Chantilly, Va.). The reaction was initiated by the addition of 50 μL of the buffer containing the enzyme at a concentration of 1 nM for thrombin or 20 nM for caspase-3. The hydrolysis of rhodamine substrates was measured with a Spectramax Gemini XS spectrofluorimeter (Molecular devices, Sunnyvale, Calif.) thermostated at 37° C. using an excitation wavelength of 490 nm, an emission wavelength of 530 nm and a cutoff wavelength of 515 nm.
# caspase-3 = molecular target: T2, caspase-3 (Homo sapiens, UniProt P42574); assay: as above; assay type: biochemical; parameters: made in house; settings: substrate 250 μM, caspase-3 10 nM, 37° C.
# T2 sequence (P42574 29-175 limits assumed): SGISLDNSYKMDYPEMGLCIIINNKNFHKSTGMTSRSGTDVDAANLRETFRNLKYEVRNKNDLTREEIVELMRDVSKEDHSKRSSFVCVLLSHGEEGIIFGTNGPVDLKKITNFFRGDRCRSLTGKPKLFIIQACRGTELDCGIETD
# T2 sequence (P42574 176-277 limits assumed): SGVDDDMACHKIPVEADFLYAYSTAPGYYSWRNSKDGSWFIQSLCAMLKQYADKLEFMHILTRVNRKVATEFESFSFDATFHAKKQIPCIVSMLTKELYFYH
# Method: as §1
fluorescence signal (enzymatic hydrolysis of the rhodamine substrate) (Thrombin),fluorescence signal (enzymatic hydrolysis of the rhodamine substrate) (Thrombin; listed as (nTPR)2-rhodamine-Ac),fluorescence signal (enzymatic hydrolysis of the rhodamine substrate) (caspase-3),fluorescence signal (enzymatic hydrolysis of the rhodamine substrate) (caspase-3; listed as (DEVD)2-rhodamine-Ac),Substance
strong fluorescent signal,linear increase in fluorescence,only a slight increase in fluorescence,,(Ac-nTPR)2-rhodamine-Lys(Ac) [compound 3]
only a slight increase in fluorescence,,strong fluorescent signal,linear increase in fluorescence,(Ac-DEVD)2-rhodamine-Lys(Ac) [compound 1]
